US12577597B2, “Transgenic microorganisms and synthesis of piperazic acid, piperazic acid containing products, and derivatives thereof” (Washington University, priority 2017, dated 2026)

Legend:
[1] = tested on: Streptomyces flaveolus pzbB (sfaC) deletion mutant; format: cell-based
Description: FIG. 5 is a series of LC/MS spectra showing the detection of sanglifehrin, a Piz—containing compound produced by Streptomyces flaveolus. Four major isobaric isomers of sanglifehrin A detected in WT S. flaveolus fermentation extracts. As expected from the results above, an unmarked gene deletion of pzbB (sfaC) from S. flaveolus abrogates sanglifehrin production.
Data indicating L-Piz successfully penetrates at least one Piz-compound producing actinomycete was obtained, followed by subsequent incorporation into a Piz drug-like compound sanglifehrin (see e.g., FIG. 5). […] Four major isobaric isomers of sanglifehrin A detected in WT S. flaveolus fermentation extracts. As expected from the results in FIG. 5, an unmarked gene deletion of pzbB (sfaC) from S. flaveolus abrogates sanglifehrin production.

[2] = tested on: SfaC-His6 (PzbB); test: Hemin influence on SfaC (PzbB) N5-OH-L-ornithine in vitro assay, piperazic acid quantified by HPLC/MS; format: biochemical, Streptomyces flaveolus; conditions: hemin 10 μM in DMSO vs DMSO alone; SfaC-His6 2 μM; N5-OH-L-orn 1 mM; 50 mM Tris.HCl pH 8.0; aliquots at 30, 60, 90 sec
Sequence of SfaC-His6 (PzbB) (as listed by the source): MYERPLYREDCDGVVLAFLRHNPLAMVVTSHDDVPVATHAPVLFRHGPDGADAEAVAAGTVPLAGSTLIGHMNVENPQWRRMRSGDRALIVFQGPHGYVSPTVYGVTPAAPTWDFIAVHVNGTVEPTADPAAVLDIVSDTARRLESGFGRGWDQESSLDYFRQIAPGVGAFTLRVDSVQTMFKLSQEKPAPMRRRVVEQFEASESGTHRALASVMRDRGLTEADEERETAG
Experimental: As expected for a bona fide cofactor, adding hemin increases the rate of turnover.
100 μL of reaction in 50 mM Tris.HCl at pH 8.0 was set up with N^5—OH-L-orn (1 mM), SfaC-His6 (2 μM), and either hemin in DMSO (10 μM) or just DMSO. The two reactions were incubated at […]. Then, 30 μL aliquots were removed at 30, 60, and 90 sec, and combined with 30 μL 6% 5-sulfosalicylic acid. The cloudy mixture was centrifuged, and the supernatant was used for analysis. Sample was analyzed for piperazic acid by HPLC/MS. Analysis was performed using an lmtakt Intrada Amino Acid column (50×3 mm, 3 μm pore size) installed on an Agilent 1260 Infinity HPLC connected to an Agilent 6420 Triple-Quad mass spectrometer using the following method: T=0, 86% B; T=3, 86% B; T=10, 0% B; T=11, 0% B; T=12, 86% B; T=14, 86% B; A: water+100 mM ammonium formate, B: acetonitrile+0.1% formic acid; 0.6 mL/min. An extracted ion count chromatogram at m/z 131.1 (monoisotopic mass of protonated piperazic acid) was used to detect piperazic acid. For quantification, an SRM transition (m/z 131.1=>56.3; source voltage, 86 V; collision energy, 37 V) was monitored, and a standard curve (second order polynomial, R2=0.9996) was generated between 0.1 μM and 100 μM using a chemically synthesized L-piperazic acid dihydrochloride standard. The concentrations in time were plotted, and fitted to a line. […]

| Compound | toxicity (qualitative) ([1]; 50 μM exogenous L-Piz, S. flaveolus) | cell penetrance ([1]; inferred from restored sanglifehrin production with 50 μM exogenous L-Piz in S. flaveolus) | increase of the slope (rate of reaction, piperazic acid formation) by hemin [2] [times] |
| --- | --- | --- | --- |
| O=C(O)C1CCCNN1 [L-Piz, L-piperazic acid] | qualitatively nontoxic | cell penetrant | – |
| Fe^+3-protoporphryin IX [Hemin] | – | – | 14.4 |
